# Data from ChEMBL document CHEMBL1201862, “PubChem BioAssay data set” (2004).
# The source made the active and inactive calls.
# Tests used:
# [1] = biological target: T1, Sentrin-specific protease 7 (Homo sapiens, UniProt Q9BQF6); test: inhibition of human SENP7 cleavage activity – biochemical, luminescence, SAR follow-up (AID 504497); assay type: functional
# T1 sequence (Q9BQF6 whole entry): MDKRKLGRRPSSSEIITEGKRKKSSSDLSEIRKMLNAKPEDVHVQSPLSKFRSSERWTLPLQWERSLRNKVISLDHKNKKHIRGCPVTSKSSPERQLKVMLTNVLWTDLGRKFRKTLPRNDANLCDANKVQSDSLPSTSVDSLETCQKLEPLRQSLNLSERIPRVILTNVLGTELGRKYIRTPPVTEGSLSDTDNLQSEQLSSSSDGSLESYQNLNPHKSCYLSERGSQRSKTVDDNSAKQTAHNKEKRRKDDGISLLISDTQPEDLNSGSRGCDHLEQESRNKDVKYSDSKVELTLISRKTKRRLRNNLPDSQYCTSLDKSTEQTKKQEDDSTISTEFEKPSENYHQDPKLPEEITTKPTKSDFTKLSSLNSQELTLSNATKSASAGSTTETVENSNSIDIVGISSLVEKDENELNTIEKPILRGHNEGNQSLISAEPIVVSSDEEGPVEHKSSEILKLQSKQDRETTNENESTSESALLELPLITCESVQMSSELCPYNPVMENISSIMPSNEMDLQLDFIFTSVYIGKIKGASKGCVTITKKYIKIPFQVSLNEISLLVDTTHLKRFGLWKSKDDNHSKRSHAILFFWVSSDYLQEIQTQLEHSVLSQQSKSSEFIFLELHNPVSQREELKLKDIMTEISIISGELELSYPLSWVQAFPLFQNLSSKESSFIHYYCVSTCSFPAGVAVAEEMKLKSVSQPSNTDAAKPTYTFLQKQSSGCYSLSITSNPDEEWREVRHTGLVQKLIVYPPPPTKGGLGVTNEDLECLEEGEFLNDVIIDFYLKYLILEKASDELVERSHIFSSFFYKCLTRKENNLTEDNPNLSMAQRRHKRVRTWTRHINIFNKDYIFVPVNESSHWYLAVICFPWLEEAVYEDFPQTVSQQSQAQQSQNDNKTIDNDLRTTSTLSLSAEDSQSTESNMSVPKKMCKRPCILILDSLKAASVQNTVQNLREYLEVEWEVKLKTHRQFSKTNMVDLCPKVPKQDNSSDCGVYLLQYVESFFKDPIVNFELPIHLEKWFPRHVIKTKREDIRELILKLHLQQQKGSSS
# Activated CDC42 kinase 1 = Activated CDC42 kinase 1 (Homo sapiens, UniProt Q07912); test: Navigating the Kinome. Panel member name: ACK1; assay type: functional
# [2] = biological target: Platelet-derived growth factor receptor alpha (Homo sapiens, UniProt P16234); test: Navigating the Kinome. Panel member name: PDGFRA; assay type: functional
# [3] = biological target: Leukocyte tyrosine kinase receptor (Homo sapiens, UniProt P29376); test: Navigating the Kinome. Panel member name: LTK; assay type: functional
# [4] = biological target: Inhibitor of nuclear factor kappa-B kinase subunit epsilon (Homo sapiens, UniProt Q14164); test: Navigating the Kinome. Panel member name: IKBKE; assay type: functional
# [5] = biological target: Death-associated protein kinase 3 (Homo sapiens, UniProt O43293); assay type: functional;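 also: measured as one member of a kinome-wide profiling panel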
# [6] = biological target: Vascular endothelial growth factor receptor 2 (Homo sapiens, UniProt P35968); assay type: functional
# [7] = biological target: Receptor-type tyrosine-protein kinase FLT3 (Homo sapiens, UniProt P36888); assay type: functional;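 also: FLT3 was tested as one member of a kinome-wide kinase panel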
# [8] = biological target: Serine/threonine-protein kinase TBK1 (Homo sapiens, UniProt Q9UHD2); test: Navigating the Kinome. Panel member name: TBK1; assay type: functional
# [9] = biological target: Mitogen-activated protein kinase 8 (Homo sapiens, UniProt P45983); assay type: functional;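 also: value comes from one member of a kinome-wide kinase profiling panel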
# [10] = biological target: Leucine-rich repeat serine/threonine-protein kinase 2 (Homo sapiens, UniProt Q5S007); assay type: functional;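 also: value from a broad kinome-wide panel profiling study in which LRRK2 was one of the kinases tested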
# [11] = biological target: BDNF/NT-3 growth factors receptor (Homo sapiens, UniProt Q16620); assay type: functional;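 also: NTRK2 measured as one member of a broad kinome-wide kinase profiling panel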
# [12] = biological target: T2, Tyrosine-protein kinase JAK3 (Homo sapiens, UniProt P52333); assay type: functional
# T2 sequence (P52333 whole entry): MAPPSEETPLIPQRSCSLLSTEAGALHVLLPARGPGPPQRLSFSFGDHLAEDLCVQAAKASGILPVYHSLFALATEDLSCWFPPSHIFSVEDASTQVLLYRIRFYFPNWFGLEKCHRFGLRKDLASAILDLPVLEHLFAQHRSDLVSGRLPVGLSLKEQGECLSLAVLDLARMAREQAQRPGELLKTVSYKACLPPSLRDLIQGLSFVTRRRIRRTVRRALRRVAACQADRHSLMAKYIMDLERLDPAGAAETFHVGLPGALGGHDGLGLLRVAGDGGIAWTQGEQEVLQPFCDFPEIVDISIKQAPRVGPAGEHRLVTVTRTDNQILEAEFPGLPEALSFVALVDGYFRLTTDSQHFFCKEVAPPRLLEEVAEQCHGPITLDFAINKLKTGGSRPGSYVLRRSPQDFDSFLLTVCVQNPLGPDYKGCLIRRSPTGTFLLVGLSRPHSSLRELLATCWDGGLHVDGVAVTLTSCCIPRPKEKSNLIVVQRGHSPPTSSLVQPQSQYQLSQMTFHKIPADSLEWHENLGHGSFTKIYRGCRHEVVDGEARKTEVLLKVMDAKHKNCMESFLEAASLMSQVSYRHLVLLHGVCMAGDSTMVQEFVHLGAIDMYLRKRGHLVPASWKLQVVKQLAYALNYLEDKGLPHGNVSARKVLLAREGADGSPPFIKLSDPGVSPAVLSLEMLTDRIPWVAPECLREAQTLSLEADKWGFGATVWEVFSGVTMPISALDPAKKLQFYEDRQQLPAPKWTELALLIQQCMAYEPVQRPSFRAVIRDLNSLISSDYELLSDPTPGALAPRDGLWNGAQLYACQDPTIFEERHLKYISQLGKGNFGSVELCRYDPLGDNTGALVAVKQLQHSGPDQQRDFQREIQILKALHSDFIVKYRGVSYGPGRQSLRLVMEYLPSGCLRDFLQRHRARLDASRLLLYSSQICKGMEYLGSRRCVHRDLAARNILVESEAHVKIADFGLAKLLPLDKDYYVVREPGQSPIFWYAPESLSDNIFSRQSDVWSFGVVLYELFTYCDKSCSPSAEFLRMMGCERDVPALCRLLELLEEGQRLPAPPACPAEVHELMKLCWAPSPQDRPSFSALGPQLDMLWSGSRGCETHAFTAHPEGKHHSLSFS
# [13] = biological target: Serine/threonine-protein kinase TAO1 (Homo sapiens, UniProt Q7L7X3); assay type: functional
# Streptococcus = test: GAS UMAA2166 growth inhibition – luminescence, BacTiterGlo, counter-screen for streptokinase expression inhibitor project, dose response (AID 1915); assay type: functional, organism-based;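 also: potency for reduction of bacterial viability or growth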
# [14] = test system: Streptococcus sp. 'group A'; test: Streptococcus pyogenes SK(-)GAS viability under kanamycin – luminescence, BacTiterGlo, confirmation, counter-screen for streptokinase expression inhibitor project, dose response (AID 1900); assay type: functional, organism-based
# Leukocyte tyrosine kinase receptor, sequence (P29376 whole entry): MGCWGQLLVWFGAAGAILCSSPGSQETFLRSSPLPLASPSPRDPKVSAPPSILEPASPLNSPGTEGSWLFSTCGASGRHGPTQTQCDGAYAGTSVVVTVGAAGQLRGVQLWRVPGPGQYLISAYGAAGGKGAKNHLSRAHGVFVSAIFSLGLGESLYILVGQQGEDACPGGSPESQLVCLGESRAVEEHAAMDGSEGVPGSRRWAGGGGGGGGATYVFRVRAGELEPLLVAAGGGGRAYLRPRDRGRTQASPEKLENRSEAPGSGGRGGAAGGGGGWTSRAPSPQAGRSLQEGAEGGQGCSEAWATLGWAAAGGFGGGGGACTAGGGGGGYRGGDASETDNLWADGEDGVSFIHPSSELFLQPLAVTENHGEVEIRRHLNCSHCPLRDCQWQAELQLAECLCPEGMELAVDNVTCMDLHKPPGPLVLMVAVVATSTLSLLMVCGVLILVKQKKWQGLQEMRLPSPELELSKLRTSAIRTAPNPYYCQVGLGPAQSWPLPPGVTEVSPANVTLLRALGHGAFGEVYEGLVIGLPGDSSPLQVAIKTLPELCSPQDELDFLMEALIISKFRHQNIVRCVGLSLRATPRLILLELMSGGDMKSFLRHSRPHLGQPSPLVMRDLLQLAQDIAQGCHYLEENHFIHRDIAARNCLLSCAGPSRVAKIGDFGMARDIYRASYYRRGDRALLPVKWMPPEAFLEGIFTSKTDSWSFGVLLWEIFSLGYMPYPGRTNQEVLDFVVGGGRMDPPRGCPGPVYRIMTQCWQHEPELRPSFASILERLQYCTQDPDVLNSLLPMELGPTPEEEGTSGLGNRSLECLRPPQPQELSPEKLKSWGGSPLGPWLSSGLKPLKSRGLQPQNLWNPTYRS
# Inhibitor of nuclear factor kappa-B kinase subunit epsilon, sequence (Q14164 whole entry): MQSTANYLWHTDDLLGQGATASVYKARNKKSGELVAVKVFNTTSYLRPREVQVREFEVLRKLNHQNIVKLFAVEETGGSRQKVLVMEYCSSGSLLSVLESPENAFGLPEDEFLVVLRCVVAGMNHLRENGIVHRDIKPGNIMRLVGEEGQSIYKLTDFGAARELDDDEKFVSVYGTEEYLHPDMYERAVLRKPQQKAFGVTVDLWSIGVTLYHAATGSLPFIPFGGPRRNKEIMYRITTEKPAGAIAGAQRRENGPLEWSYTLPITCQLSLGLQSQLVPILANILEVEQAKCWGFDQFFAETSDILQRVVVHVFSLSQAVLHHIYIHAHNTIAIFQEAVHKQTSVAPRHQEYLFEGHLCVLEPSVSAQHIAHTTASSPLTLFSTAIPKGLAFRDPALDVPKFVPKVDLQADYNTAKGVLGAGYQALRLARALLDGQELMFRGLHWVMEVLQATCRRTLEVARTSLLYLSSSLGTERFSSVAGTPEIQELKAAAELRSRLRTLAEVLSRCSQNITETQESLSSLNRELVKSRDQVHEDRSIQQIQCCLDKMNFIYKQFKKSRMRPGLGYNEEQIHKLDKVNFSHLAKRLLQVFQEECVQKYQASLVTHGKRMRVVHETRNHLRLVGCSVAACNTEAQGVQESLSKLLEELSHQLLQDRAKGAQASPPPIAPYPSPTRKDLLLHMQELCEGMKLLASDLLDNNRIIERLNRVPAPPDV
# Death-associated protein kinase 3, sequence (O43293 whole entry): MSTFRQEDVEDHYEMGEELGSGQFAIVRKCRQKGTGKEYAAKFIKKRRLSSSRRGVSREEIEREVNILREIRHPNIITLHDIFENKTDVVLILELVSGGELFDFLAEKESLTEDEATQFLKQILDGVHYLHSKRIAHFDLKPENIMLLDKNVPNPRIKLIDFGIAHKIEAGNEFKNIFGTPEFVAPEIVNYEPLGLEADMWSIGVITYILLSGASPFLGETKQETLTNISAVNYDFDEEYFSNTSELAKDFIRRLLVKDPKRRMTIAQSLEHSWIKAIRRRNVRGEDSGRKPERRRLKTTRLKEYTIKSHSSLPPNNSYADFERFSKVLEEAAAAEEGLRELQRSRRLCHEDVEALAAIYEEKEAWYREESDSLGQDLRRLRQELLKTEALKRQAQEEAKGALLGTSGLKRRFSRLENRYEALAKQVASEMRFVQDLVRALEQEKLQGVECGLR
# Mitogen-activated protein kinase 8, sequence (P45983 whole entry): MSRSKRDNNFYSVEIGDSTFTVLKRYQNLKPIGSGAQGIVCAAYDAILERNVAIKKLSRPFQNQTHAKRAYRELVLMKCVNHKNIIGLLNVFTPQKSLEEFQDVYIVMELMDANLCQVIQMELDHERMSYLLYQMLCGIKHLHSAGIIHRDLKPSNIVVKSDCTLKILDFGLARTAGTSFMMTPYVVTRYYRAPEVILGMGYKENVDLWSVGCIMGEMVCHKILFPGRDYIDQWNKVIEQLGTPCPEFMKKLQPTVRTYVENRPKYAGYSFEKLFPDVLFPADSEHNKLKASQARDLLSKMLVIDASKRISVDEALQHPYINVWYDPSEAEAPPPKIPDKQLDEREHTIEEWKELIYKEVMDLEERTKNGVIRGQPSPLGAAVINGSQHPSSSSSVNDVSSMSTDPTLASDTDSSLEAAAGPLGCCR
# Serine/threonine-protein kinase TBK1, sequence (Q9UHD2 whole entry): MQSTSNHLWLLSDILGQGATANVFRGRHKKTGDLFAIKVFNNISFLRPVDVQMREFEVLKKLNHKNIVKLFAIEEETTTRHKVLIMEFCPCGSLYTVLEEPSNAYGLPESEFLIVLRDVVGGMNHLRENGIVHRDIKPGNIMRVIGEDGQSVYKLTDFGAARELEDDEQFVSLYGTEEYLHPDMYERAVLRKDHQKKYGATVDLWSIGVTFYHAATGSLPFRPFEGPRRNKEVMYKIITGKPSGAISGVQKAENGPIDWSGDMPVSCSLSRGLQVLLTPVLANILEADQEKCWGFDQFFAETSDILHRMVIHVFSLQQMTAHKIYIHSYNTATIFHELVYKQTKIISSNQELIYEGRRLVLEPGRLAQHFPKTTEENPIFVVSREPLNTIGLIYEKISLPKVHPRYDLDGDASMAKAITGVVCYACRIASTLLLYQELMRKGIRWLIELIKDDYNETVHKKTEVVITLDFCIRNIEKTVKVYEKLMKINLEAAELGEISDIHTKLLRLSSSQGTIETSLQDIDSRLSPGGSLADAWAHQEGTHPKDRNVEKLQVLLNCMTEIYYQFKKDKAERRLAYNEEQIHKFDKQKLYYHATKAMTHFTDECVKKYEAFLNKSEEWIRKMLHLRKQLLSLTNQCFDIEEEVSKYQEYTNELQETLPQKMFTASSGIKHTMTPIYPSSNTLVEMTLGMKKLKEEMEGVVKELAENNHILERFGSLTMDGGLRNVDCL
# Vascular endothelial growth factor receptor 2, sequence (P35968 whole entry): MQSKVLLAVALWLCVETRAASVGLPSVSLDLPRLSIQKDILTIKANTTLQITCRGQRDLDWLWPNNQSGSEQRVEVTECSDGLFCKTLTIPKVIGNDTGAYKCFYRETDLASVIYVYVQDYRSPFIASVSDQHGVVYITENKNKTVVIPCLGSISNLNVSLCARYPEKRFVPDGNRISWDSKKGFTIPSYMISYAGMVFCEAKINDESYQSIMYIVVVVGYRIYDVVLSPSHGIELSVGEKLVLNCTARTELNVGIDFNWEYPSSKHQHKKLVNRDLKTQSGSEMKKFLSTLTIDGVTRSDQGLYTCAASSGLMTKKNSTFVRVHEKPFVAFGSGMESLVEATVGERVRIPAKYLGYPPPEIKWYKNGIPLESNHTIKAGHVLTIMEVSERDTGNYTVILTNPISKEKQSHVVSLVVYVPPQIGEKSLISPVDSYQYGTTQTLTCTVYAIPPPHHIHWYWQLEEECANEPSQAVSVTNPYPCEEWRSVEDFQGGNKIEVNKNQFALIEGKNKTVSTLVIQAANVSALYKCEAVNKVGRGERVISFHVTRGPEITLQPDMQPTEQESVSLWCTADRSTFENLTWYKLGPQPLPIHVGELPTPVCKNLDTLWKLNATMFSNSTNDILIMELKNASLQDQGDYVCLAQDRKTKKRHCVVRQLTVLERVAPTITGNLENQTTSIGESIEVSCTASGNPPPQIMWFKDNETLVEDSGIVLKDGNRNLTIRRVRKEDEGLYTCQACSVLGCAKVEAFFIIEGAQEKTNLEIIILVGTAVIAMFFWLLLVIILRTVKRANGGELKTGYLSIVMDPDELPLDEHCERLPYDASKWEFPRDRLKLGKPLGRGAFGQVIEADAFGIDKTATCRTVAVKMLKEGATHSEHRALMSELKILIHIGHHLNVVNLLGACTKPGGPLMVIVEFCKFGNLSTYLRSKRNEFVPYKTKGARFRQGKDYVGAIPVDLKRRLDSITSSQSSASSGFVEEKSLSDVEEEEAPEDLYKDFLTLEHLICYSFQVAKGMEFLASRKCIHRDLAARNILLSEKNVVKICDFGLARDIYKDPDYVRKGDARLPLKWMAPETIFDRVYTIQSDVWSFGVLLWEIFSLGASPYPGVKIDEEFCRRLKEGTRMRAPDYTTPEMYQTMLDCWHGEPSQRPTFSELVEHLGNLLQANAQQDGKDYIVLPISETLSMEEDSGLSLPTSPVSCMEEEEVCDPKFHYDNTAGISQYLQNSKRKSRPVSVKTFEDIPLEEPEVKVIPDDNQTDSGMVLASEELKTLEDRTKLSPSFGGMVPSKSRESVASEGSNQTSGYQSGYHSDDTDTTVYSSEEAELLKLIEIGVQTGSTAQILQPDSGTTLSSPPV
structure (smiles),measurement,setting,value
Cc1ccc(NC(=O)COc2cccc(/C=C3\SC(=S)N(CCC(=O)O)C3=O)c2)cc1Cl,IC50,[1],12.7 µM (active)
COc1cccc(C(C)NC(=O)c2ccc(-c3ccncc3)s2)c1 (stereo unspecified),Ki,Activated CDC42 kinase 1,> 3.98 µM (inactive)
same,Ki,[2],> 2.51 µM (inactive)
same,Ki,[3],> 2.51 µM (inactive)
same,Ki,[4],> 3.16 µM (inactive)
same,Ki,[5],> 5.01 µM (inactive)
same,Ki,[6],> 2.51 µM (inactive)
same,Ki,[7],> 3.16 µM (inactive)
same,Ki,[8],> 3.16 µM (inactive)
same,Ki,[9],> 5.01 µM (inactive)
same,Ki,[10],> 2.51 µM (inactive)
same,Ki,[11],> 3.98 µM (inactive)
same,Ki,[12],> 5.01 µM (inactive)
same,Ki,[13],> 6.31 µM (inactive)
O=Nc1c(-c2c(O)[nH]c3cc(Br)ccc23)[nH]c2ccccc12,EC50,Streptococcus,3.48 µM (active)
same,EC50,[14],2.6 µM (active)
